Laboratory results: ChEMBL document CHEMBL3991601, “The target landscape of clinical kinase drugs” (Science, 2017)
Activity calls are given as the source filed them. Cut-off read from the data, not from the text of the source, for most assays here: actives have a measured Kd and inactives only a lower limit.

Assays:
[1] = target: T1, Glycogen phosphorylase, liver form (Homo sapiens, UniProt P06737); format: subcellular, K-562, COLO 205, SK-N-BE(2) and MV-4-11, Cell lysate; details: read-out: Kd apparent
T1 sequence (P06737 whole entry): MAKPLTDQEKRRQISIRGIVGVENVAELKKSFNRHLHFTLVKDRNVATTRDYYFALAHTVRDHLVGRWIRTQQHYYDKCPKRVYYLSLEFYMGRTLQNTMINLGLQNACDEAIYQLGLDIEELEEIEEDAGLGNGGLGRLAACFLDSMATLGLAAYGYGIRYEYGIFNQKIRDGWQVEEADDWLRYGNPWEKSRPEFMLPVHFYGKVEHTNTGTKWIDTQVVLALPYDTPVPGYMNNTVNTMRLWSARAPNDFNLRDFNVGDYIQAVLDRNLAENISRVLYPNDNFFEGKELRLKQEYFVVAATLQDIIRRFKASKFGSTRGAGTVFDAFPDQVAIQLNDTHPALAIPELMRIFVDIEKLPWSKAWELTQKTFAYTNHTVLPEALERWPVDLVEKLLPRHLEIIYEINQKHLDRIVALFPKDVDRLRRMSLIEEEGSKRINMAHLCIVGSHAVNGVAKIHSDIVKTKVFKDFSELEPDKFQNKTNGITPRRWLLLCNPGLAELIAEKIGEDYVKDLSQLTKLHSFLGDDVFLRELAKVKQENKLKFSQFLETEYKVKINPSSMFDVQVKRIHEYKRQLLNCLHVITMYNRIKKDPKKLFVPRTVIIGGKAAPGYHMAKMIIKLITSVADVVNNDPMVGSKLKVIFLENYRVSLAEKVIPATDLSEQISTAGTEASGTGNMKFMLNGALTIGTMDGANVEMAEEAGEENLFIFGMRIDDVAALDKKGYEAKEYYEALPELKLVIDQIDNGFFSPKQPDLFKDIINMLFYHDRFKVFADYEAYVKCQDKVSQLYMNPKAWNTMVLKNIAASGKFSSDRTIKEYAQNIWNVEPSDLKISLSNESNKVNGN

[2] = target: AP2-associated protein kinase 1 (Homo sapiens, UniProt Q2M2I8)
[3] = target: T2, Probable ATP-dependent RNA helicase DDX6 (Homo sapiens, UniProt P26196)
T2 sequence (P26196 whole entry): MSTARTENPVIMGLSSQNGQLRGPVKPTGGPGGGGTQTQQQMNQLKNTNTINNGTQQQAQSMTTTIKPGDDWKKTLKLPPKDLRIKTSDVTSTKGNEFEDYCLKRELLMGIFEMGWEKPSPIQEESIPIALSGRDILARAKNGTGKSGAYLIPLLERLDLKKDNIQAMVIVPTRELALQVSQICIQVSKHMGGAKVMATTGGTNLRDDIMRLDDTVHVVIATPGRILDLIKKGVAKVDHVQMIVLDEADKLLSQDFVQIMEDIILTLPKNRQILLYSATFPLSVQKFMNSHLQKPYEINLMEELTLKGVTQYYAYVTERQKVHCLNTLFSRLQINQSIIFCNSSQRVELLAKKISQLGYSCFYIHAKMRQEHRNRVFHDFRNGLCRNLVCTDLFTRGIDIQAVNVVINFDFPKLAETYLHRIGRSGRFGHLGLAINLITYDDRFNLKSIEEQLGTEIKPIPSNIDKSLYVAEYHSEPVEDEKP

[4] = target: Eukaryotic translation initiation factor 2-alpha kinase 1 (Homo sapiens, UniProt Q9BQI3)
[5] = target: Tyrosine-protein kinase Lyn (Homo sapiens, UniProt P07948)
[6] = target: T3, Mitogen-activated protein kinase kinase kinase 2 (Homo sapiens, UniProt Q9Y2U5)
T3 sequence (Q9Y2U5 whole entry): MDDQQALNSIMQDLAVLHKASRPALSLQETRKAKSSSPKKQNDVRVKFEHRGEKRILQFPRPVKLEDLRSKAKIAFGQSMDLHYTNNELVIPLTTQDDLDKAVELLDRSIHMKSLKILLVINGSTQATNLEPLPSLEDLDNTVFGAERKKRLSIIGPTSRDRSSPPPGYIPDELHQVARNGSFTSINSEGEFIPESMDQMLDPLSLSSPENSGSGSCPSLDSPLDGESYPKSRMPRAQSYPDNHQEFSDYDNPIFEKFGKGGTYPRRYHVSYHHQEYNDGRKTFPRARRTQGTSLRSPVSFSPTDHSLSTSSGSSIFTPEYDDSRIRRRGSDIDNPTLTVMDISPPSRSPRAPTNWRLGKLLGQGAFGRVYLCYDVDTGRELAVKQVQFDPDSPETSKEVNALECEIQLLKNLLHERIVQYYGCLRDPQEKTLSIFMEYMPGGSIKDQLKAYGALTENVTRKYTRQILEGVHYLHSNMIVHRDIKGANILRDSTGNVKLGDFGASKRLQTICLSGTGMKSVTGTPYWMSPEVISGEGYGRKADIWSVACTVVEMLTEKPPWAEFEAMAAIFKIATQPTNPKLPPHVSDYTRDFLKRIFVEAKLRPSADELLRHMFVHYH

[7] = target: MAP kinase-activated protein kinase 2 (Homo sapiens, UniProt P49137)
[8] = target: Protein kinase C delta type (Homo sapiens, UniProt Q05655)
[9] = target: Serine/threonine-protein kinase 10 (Homo sapiens, UniProt O94804)
[10] = target: Serine/threonine-protein kinase 16 (Homo sapiens, UniProt O75716)
Note: in the data inactive means no Kd found up to 30 µM.

Sequence of Protein kinase C delta type (Q05655 whole entry): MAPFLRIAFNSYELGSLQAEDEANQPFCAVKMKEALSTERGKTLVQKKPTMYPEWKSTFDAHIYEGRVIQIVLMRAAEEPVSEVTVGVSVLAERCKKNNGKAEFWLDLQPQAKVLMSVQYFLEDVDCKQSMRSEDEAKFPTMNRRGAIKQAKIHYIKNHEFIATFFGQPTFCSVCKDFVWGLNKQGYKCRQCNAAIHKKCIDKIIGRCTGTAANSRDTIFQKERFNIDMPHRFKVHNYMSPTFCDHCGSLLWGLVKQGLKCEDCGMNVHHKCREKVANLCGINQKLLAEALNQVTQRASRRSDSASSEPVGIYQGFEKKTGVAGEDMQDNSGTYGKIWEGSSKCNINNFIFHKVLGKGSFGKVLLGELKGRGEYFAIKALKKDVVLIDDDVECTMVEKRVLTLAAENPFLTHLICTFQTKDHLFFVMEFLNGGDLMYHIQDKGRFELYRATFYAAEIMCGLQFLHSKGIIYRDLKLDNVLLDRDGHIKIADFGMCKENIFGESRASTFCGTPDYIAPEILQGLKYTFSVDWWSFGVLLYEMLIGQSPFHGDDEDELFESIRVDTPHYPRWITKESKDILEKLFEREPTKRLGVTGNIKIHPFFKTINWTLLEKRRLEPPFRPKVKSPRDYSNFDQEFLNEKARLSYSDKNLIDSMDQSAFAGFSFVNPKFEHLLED
Sequence of AP2-associated protein kinase 1 (Q2M2I8 whole entry): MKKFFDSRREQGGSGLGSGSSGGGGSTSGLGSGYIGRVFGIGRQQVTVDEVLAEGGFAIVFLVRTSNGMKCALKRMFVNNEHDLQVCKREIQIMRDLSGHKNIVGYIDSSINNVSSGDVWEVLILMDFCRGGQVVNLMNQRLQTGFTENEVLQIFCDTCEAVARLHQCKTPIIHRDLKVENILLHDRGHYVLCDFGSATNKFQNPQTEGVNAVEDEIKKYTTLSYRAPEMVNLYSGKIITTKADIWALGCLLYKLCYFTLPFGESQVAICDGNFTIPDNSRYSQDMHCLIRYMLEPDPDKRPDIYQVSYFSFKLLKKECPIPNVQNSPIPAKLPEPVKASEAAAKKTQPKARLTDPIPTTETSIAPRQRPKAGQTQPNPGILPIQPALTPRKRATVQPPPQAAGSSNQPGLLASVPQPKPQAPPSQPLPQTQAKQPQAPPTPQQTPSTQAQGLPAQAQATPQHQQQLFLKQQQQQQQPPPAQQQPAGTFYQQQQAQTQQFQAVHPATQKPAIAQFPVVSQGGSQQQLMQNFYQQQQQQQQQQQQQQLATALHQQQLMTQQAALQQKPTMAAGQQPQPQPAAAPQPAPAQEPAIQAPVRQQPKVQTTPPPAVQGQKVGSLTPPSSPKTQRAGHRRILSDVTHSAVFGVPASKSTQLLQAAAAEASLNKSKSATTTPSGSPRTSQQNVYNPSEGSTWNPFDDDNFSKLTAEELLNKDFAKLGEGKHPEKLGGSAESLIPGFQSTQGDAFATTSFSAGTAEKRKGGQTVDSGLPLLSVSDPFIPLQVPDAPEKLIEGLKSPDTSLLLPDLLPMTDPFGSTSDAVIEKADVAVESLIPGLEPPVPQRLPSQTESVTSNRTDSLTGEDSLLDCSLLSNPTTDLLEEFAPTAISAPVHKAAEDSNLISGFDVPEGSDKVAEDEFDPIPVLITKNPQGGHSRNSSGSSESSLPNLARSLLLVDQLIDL
Sequence of MAP kinase-activated protein kinase 2 (P49137 whole entry): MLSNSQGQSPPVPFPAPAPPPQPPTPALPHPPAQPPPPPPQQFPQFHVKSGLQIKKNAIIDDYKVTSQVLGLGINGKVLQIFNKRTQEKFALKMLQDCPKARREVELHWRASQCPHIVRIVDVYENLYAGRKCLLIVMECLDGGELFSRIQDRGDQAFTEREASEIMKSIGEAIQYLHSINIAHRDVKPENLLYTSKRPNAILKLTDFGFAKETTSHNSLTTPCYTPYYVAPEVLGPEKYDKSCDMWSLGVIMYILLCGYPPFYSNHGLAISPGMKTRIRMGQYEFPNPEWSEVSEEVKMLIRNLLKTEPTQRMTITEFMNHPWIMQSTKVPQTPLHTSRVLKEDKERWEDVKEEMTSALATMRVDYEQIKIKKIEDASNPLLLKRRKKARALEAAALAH
Sequence of Tyrosine-protein kinase Lyn (P07948 whole entry): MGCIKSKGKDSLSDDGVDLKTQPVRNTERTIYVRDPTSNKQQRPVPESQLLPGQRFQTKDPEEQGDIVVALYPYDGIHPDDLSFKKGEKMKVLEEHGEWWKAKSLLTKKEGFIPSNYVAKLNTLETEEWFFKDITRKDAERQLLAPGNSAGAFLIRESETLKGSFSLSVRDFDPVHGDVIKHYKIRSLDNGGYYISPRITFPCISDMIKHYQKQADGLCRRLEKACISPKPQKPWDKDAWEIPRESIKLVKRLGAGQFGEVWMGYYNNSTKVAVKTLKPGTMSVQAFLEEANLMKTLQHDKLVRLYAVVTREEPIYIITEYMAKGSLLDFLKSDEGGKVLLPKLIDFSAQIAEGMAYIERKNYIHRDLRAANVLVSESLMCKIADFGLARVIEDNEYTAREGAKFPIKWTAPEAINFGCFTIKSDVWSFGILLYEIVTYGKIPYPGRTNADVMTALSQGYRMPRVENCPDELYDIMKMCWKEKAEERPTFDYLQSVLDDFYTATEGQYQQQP
Sequence of Serine/threonine-protein kinase 10 (O94804 whole entry): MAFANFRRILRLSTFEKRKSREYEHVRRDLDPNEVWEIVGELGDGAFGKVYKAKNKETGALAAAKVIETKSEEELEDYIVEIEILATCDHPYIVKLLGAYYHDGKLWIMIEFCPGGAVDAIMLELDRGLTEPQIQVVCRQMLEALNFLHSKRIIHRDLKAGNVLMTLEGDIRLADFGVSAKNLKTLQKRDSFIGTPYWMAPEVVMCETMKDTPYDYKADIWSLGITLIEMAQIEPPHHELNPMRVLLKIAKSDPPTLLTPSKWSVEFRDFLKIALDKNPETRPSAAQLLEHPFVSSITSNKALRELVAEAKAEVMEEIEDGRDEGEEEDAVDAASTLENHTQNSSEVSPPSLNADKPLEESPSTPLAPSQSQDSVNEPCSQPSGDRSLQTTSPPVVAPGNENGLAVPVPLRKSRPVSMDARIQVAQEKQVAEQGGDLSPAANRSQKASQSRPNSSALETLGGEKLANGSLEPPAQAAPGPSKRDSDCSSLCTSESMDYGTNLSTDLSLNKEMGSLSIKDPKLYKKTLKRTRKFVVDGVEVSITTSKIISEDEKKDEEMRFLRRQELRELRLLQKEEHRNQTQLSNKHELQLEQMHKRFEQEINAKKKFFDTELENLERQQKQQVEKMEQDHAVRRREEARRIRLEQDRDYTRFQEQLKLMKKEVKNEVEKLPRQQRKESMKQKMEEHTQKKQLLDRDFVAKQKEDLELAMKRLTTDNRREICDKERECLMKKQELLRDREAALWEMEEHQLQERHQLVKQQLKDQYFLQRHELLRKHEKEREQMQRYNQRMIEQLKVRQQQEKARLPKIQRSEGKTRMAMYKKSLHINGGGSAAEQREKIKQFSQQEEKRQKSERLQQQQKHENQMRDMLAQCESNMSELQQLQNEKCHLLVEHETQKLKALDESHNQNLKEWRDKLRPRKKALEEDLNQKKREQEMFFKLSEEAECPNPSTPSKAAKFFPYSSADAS
Sequence of Serine/threonine-protein kinase 16 (O75716 whole entry): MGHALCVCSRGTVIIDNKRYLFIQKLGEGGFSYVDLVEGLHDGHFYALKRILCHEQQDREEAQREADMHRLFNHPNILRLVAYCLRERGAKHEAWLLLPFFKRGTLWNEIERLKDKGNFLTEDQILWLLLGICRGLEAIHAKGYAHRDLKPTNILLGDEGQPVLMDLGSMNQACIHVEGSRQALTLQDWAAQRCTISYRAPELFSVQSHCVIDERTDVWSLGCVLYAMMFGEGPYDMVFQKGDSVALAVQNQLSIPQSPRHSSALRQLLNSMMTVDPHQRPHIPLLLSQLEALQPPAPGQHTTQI
Sequence of Eukaryotic translation initiation factor 2-alpha kinase 1 (Q9BQI3 whole entry): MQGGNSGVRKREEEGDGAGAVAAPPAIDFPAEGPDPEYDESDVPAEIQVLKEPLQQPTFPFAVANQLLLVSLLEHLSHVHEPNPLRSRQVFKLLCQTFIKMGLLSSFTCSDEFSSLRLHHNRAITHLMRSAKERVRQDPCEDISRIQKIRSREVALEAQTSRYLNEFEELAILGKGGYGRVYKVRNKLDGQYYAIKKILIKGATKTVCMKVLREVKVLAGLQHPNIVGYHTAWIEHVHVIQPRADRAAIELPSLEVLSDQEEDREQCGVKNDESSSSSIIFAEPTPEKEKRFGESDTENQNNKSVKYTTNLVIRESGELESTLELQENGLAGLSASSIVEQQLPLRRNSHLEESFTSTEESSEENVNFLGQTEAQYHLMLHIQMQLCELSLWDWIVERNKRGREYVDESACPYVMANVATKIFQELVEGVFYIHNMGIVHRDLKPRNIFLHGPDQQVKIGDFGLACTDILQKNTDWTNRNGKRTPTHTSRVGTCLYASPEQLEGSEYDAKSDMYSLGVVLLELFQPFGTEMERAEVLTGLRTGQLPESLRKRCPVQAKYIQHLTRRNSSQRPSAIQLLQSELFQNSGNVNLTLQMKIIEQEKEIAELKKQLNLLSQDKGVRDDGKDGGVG

SMILES	Kd [1]	Kd [2]	Kd [3]	Kd [4]	Kd [5]	Kd [6]	Kd [7]	Kd [8]	Kd [9]	Kd [10]
COc1cc(N2CCC(N3CCN(C)CC3)CC2)ccc1Nc1ncnc(Nc2ccccc2S(=O)(=O)C(C)C)n1 [ASP-3026]	> 30 µM (inactive)	1.32 µM (active)	> 30 µM (inactive)	> 30 µM (inactive)	> 30 µM (inactive)	> 30 µM (inactive)	> 30 µM (inactive)	> 30 µM (inactive)	23.7 µM (active)	> 30 µM (inactive)
Cc1ccc(S(=O)(=O)Nc2nc3ccccc3nc2Nc2ccc3nsnc3c2)cc1	> 30 µM (inactive)	> 30 µM (inactive)	> 30 µM (inactive)	> 30 µM (inactive)	> 30 µM (inactive)	> 30 µM (inactive)	> 30 µM (inactive)	> 30 µM (inactive)	> 30 µM (inactive)	> 30 µM (inactive)
C=CC(=O)N1CCC(Oc2cc3c(Nc4ccc(Cl)c(Cl)c4F)ncnc3cc2OC)CC1 [POZIOTINIB]	> 30 µM (inactive)	> 30 µM (inactive)	> 30 µM (inactive)	> 30 µM (inactive)	> 30 µM (inactive)	> 30 µM (inactive)	> 30 µM (inactive)	> 30 µM (inactive)	> 30 µM (inactive)	> 30 µM (inactive)

Now from value to compound:

Kd [1]	Kd [2]	Kd [3]	Kd [4]	Kd [5]	Kd [6]	Kd [7]	Kd [8]	Kd [9]	Kd [10]	SMILES
> 30 µM (inactive)	> 30 µM (inactive)	> 30 µM (inactive)	> 30 µM (inactive)	> 30 µM (inactive)	> 30 µM (inactive)	> 30 µM (inactive)	> 30 µM (inactive)	> 30 µM (inactive)	> 30 µM (inactive)	O=c1sn(-c2cccc3ccccc23)c(=O)n1Cc1ccccc1 [TIDEGLUSIB]
> 30 µM (inactive)	> 30 µM (inactive)	> 30 µM (inactive)	> 30 µM (inactive)	> 30 µM (inactive)	> 30 µM (inactive)	> 30 µM (inactive)	> 30 µM (inactive)	> 30 µM (inactive)	> 30 µM (inactive)	CNS(=O)(=O)Nc1nccc(Cc2c(C)c3ccc(Oc4ncccn4)cc3oc2=O)c1F [AVUTOMETINIB]
> 30 µM (inactive)	> 30 µM (inactive)	> 30 µM (inactive)	> 30 µM (inactive)	> 30 µM (inactive)	> 30 µM (inactive)	> 30 µM (inactive)	> 30 µM (inactive)	2.16 µM (active)	> 30 µM (inactive)	CN1CCC(CNc2ccc3ncc(-c4cccc(OC(F)(F)F)c4)n3n2)CC1 [SGI-1776]
> 30 µM (inactive)	> 30 µM (inactive)	> 30 µM (inactive)	> 30 µM (inactive)	> 30 µM (inactive)	> 30 µM (inactive)	> 30 µM (inactive)	> 30 µM (inactive)	> 30 µM (inactive)	> 30 µM (inactive)	CCCS(=O)(=O)Nc1ccc(F)c(C(=O)c2c[nH]c3ncc(-c4ccc(Cl)cc4)cc23)c1F [VEMURAFENIB]
